# Measured values taken from ChEMBL document CHEMBL1146479, “Antineoplastic agents. 522. Hernandia peltata (Malaysia) and Hernandia nymphaeifolia (Republic of Maldives)” (2004).
# What was measured:
# Assay type in all cases: functional
# Neisseria gonorrhoeae = assay: Antimicrobial activity against Neisseria gonorrhoeae ATCC 49226 by antimicrobial susceptibility testing
# KM-20L2 = assay: Anticancer activity against human KM20L2 cells after 48 hrs by SRB assay; details: KM-20L2, 48 h, read-out: ED50 (the source's name)
# DU-145 = assay: Anticancer activity against human DU145 cells after 48 hrs by SRB assay; details: DU-145, 48 h, read-out: ED50 (the source's name)
# P388 = assay: Anticancer activity against mouse P388 cells after 48 hrs; details: P388, 48 h, read-out: ED50 (the source's name)
# BXPC-3 = assay: Anticancer activity against human BxPC3 cells after 48 hrs by SRB assay; details: BXPC-3, 48 h, read-out: ED50 (the source's name)
# SF-268 = assay: Anticancer activity against human SF268 cells after 48 hrs by SRB assay; details: SF-268, 48 h, read-out: ED50 (the source's name)
# MCF7 = assay: Anticancer activity against human MCF7 cells after 48 hrs by SRB assay; details: MCF7, 48 h, read-out: ED50 (the source's name)
# NCI-H460 = assay: Anticancer activity against human NCI-H460 cells after 48 hrs by SRB assay; details: NCI-H460, 48 h, read-out: ED50 (the source's name)
SMILES,MIC (Neisseria gonorrhoeae) [µg/mL],EC50 (KM-20L2) [µg/mL],EC50 (DU-145) [µg/mL],EC50 (P388) [µg/mL],EC50 (BXPC-3) [µg/mL],EC50 (SF-268) [µg/mL],EC50 (MCF7) [µg/mL],EC50 (NCI-H460) [µg/mL]
COc1ccc(C[C@H]2COC(=O)[C@@H]2Cc2ccc(OC)c(OC)c2)cc1OC,32,–,–,–,–,–,–,–
COc1cc([C@@H]2OC[C@H]3[C@@H]2CO[C@@H]3c2ccc3c(c2)OCO3)cc(OC)c1OC,–,> 10,> 10,1.5,> 10,> 10,> 10,> 10
COc1ccc([C@H]2OC[C@H]3[C@@H]2CO[C@H]3c2ccc(OC)c(OC)c2)cc1OC,–,3,3.1,1.7,3.4,3.8,3.5,3.8
COc1cc2c(c(OC)c1OC)[C@]13C=C(O)C(=O)C=C1O[C@H]2[C@H]1C(=O)OC[C@@H]1C3,32,–,–,–,–,–,–,–
COc1cc(CC2C(Cc3ccc4c(c3)OCO4)COC2O)cc(OC)c1OC (stereo not given) [CLUSIN],32,–,–,–,–,–,–,–
COc1cc([C@@H]2c3cc4c(cc3C[C@H]3COC(=O)[C@H]32)OCO4)cc(OC)c1OC [DEOXYPICROPODOPHYLLIN],32,0.054,0.051,0.03,0.061,0.041,0.026,0.067
COc1cc([C@@H]2c3cc4c(cc3C[C@H]3COC(=O)[C@@H]32)OCO4)cc(OC)c1OC [DESOXYPODOPHYLLOTOXIN],32,0.0028,0.0028,0.0023,0.0029,0.0033,0.0021,0.0027
COc1cc(C[C@H]2COC(=O)[C@@H]2Cc2cc(OC)c(OC)c(OC)c2)ccc1O [HERNANOL],32,–,–,–,–,–,–,–
COc1ccc(CC2COC(O)C2Cc2ccc(OC)c(OC)c2)cc1OC (stereo not given) [KUSUNOKINOL],32,–,–,–,–,–,–,–
COc1cc([C@@H](O)[C@H]2C(=O)OC[C@@H]2Cc2ccc3c(c2)OCO3)cc(OC)c1OC [PODORHIZOL],32,> 10,> 10,> 1,3.8,> 10,6.6,> 10
COc1cc2c(c(OC)c1OC)-c1cc3c(cc1C[C@H]1COC(=O)[C@@H]1C2)OCO3 [STEGANE],–,4.8,5.3,6.1,4.7,4.9,4.3,5.8
